Data from patent US20230123334A1, “AMINO LIPID COMPOUND, PREPARATION METHOD THEREFOR, AND APPLICATION THEREOF” (SHENZHEN SHENXIN BIOTECHNOLOGY CO., LTD., priority 2020, published 2023).

Columns and labels:
Assay type in all cases: cell-based
[1] = test system: embryonic stem cells (hESC2); assay: Screening as mRNA vectors in embryonic stem cells; conditions: 50 ng EGFP mRNA per well
Procedure: (§1) Cell line: embryonic stem cells (hESC2, cultured according to reported methods: Stem Cells, 2005, 23, 544-549)
(§2) Medium: mTeSR1 (STEMCELL)
Mode of screening: cell transfection on 96-well plate
(§3) Detection (readout): percentage of the number of GFP fluorescent cells relative to the total number of cells. Lipofectamine Stem was used as the positive control.
Method: the experimental method was basically the same with Example 10, and the mass of EGFP mRNA for transfection was 50 ng per well.

Hela cells [2] = assay: Transfection of Hela cell line, mRNA vectors; conditions: 50 ng EGFP mRNA per well
Summary of the method: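 Transfection efficiency was scored as GFP-fluorescent cells over Hoechst-stained total nuclei, with Lipofectamine2000 as reference reagent. Each well of HeLa cells, grown in DMEM plus 10% FBS, received 50 ng EGFP mRNA.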

Hela cells [3] = assay: Transfection of Hela cell line, DNA vectors; conditions: 75 ng plasmid DNA, GFP cells / total cells
Summary of the method: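 Amino lipid/DOPE liposomes in sodium acetate pH 5.6 were complexed with 75 ng psin-EGFP-IRES-Puro plasmid for 30 min at room temperature, then mixed with 3-5×10^4 Hela cells in DMEM/10% FBS at 37° C. Hoechst stain after 20-24 h, imaging after a further 20-24 h. Efficiency = GFP-positive cells / total nuclei.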

cardiomyocytes [4] = assay: Screening as DNA vectors in cardiomyocytes; design: concentration or dose not given beside the values; conditions: method as Example 4
Procedure: Cell line: cardiomyocytes (obtained from induced differentiation of hESC according to reported methods: J. Mol. Cell. Cardiol. 2011, 51, 288-298)
(§4) Medium: DMEM supplemented with 10% fetal bovine serum (Invitrogen)
(§5) Mode of screening: cell transfection on 96-well plates
(§6) Detection (readout): percentage of the number of GFP fluorescent cells relative to the total number of cells (the total number of cells was determined using nucleus dye Hoechst). Lipofectamine Stem (Invitrogen) was used as the positive control, according to the manufacturer's instructions.
Method: the experimental method was basically the same with Example 4.

[5] = test system: embryonic stem cells (hESC2); assay: Screening as DNA vectors in embryonic stem cells, flow cytometry; conditions: 75 ng plasmid DNA, 48 hours after transfection, flow cytometer
Excerpt: as §1, §2, §5, §3
Method: an 8-channel pipette was used for sample addition. The contents shown were for a single well of a 96-well flat plate.
1. Stem cells were cultured to 3-5×10^4 cells per well in a 96-well plate treated with matrigel.
2. The compound (0.01 mmol) prepared in Example 1 was dissolved in 1 mL of anhydrous ethanol. After ultrasonically dissolved, 10 μL of the resultant amino lipid solution in ethanol was taken and mixed with 5 μL of DOPE solution in ethanol ([…]). The obtained mixture was then added with 35 μL of 0.2 M sodium acetate buffer (pH 5.6), and vortexed at a constant rotating speed for 30 s. Then, 4 μL was taken from the obtained product and added to 46 μL of 0.02 M sodium acetate buffer (pH 5.6), and vortexed at a constant rotating speed for 30 s to form a liposome solution. 5 μL of this liposome solution was mixed with 75 ng of plasmid DNA (pSin-EGFP-IRES-Puro) dissolved in 5 μL of 0.02 M sodium acetate buffer, and allowed to stay at room temperature for 30 min to form a lipid/DNA transfection complex.
3. 10 μL of the lipid/DNA transfection complex was incubated at room temperature for 30 min, followed by addition of 90 μL mTeSR1 medium was added and mixing with a pipette. 100 μL of the mixture was added to separate wells of a 96-well culture plate and placed in an incubator containing 5% CO2 at 37° C.
4. 48 hours after transfection, the cells were digested with 0.05% Trypsin-EDTA. The cells were resuspended in a PBS buffer and filtered. The cell suspension was placed in a flow cytometer and the number of GFP-expressing cells in no less than 2000 cells was measured so as to obtain the absolute efficiency of cell transfection. The relative efficiency of cell transfection was obtained by comparing the cell transfection efficiency with the positive control Lipofectamine Stem.

MCF7 cells [6] = assay: Transfection of MCF7 cell line, DNA vectors; design: concentration or dose not given beside the values; conditions: plasmid DNA, GFP cells / total cells
Summary of the method: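 Read-out: GFP-positive cells as % of all Hoechst-stained nuclei after 96-well transfection of MCF7 cells grown in serum-supplemented DMEM. Positive control was Lipofectamine2000, used per manufacturer's protocol.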

cardiomyocytes [7] = assay: Screening as mRNA vectors in cardiomyocytes; conditions: 50 ng EGFP mRNA per well
Procedure: Cell line: cardiomyocytes (obtained from induced differentiation of hESC according to reported methods: J Mol. Cell. Cardiol. 2011, 51, 288-298)
as §4, §5, §6
Method: the experimental method was basically the same with Example 4, and the mass of EGFP mRNA for transfection was 50 ng per well.

MCF7 cells [8] = assay: Transfection of MCF7 cell line, mRNA vectors; conditions: 50 ng EGFP mRNA per well
Summary of the method: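 Efficiency was scored as the fraction of GFP-fluorescent cells over all Hoechst-counted cells after delivery of 50 ng EGFP mRNA per well. Cells were MCF7 grown in serum-supplemented DMEM, and Lipofectamine2000 served as reference.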

Row | SMILES | Absolute mRNA transfection efficiency in embryonic stem cells [1] [%] | Absolute mRNA transfection efficiency in Hela cells (Hela cells [2]) [%] | Absolute DNA transfection efficiency in Hela cells (Hela cells [3]) [%] | Absolute DNA transfection efficiency in cardiomyocytes (cardiomyocytes [4]) [%] | Absolute DNA transfection efficiency in embryonic stem cells [5] [%] | Absolute DNA transfection efficiency in MCF7 cells (MCF7 cells [6]) [%] | Absolute mRNA transfection efficiency in cardiomyocytes (cardiomyocytes [7]) [%] | Absolute mRNA transfection efficiency in MCF7 cells (MCF7 cells [8]) [%]
1 | CCCCCCCCCCCCNc1nc(NCCCN2CCOCC2)nc(SCCCCCCCCC)n1 [Compound S9N12D8] | 11.1 | 6.8 | 6.8 | 1.5 | 1.1 | 6.2 | 2.1 | 0.7
2 | CCCCCCCCCCCSc1nc(NCCCCCCCC)nc(NCCN2CCCC2)n1 [Compound S11N8D3] | 12.8 | 12.9 | 12.9 | 0.2 | 4.3 | 17.7 | 24.5 | 8.6
3 | CCCCCCCCCCCSc1nc(NCCCCCCCCC)nc(NCCCN(C)C)n1 [Compound S11N9D6] | 0.7 | 20.3 | 20.3 | 22.5 | 1.0 | 25.1 | 8.7 | 32.6
4 | CCCCCCCCCCCCNc1nc(NCCCN2CCN(C)CC2)nc(SCCCCCCCCC)n1 [Compound S9N12D9] | 7.6 | 14.4 | 14.4 | 0.0 | 2.7 | 20.0 | 32.0 | 16.4
5 | CCCCCCCCCCCCSc1nc(NCCN2CCN(C)CC2)nc(SCCCCCCCC)n1 [Compound S8S12D5] | 24.9 | 12.4 | 12.4 | 2.4 | 1.7 | 26.3 | 2.5 | 32.6
6 | CCCCCCCCCCCNc1nc(NCCN2CCCC2)nc(SCCCCCCCCC)n1 [Compound S9N11D3] | 1.7 | 21.8 | 21.8 | 0.4 | 0.4 | 26.6 | 16.7 | 7.9
7 | CCCCCCCCCCCNc1nc(NCCCN2CCOCC2)nc(SCCCCCCCCC)n1 [Compound S9N11D8] | 5.9 | 13.9 | 13.9 | 0.8 | 0.6 | 13.1 | 4.4 | 2.7
8 | CCCCCCCCCCCCSc1nc(NCCN2CCCC2)nc(SCCCCCCCC)n1 [Compound S8S12D3] | 17.9 | 5.5 | 5.5 | 0.3 | 1.5 | 1.9 | 36.7 | 6.7
9 | CCCCCCCCCCCNc1nc(NCCCN(C)C)nc(SCCCCCCCC)n1 [Compound S8N11D6] | 1.9 | 50.2 | 50.1 | 1.4 | 0.2 | 18.0 | 5.3 | 6.7
10 | CCCCCCCCCCCSc1nc(NCCCN2CCOCC2)nc(SCCCCCCCC)n1 [Compound S8S11D8] | 1.6 | 7.6 | 7.6 | 2.2 | 1.0 | 12.3 | 0.7 | 7.0
11 | CCCCCCCCCCCNc1nc(NCC2CCN(C)CC2)nc(SCCCCCCCC)n1 [Compound S8N11D10] | 0.7 | 23.4 | 23.4 | 6.6 | 0.7 | 45.3 | 16.8 | 4.4
12 | CCCCCCCCCCCSc1nc(NCCN2CCN(C)CC2)nc(SCCCCCCCC)n1 [Compound S8S11D5] | 21.1 | 5.9 | 5.9 | 0.5 | 2.4 | 48.3 | 2.7 | 30.6
13 | CCCCCCCCCCCNc1nc(NCCCN(C)C)nc(SCCCCCCCCC)n1 [Compound S9N11D6] | 5.8 | 27.7 | 27.7 | 1.9 | 1.4 | 32.6 | 5.0 | 37.2
14 | CCCCCCCCCCCSc1nc(NCCCCCCCC)nc(NCCCN(C)C)n1 [Compound S11N8D6] | 2.0 | 18.4 | 18.4 | 6.7 | 1.7 | 9.3 | 7.9 | 11.0
